Reference: article doi:10.1101/2022.02.04.479134, “A Suite of TMPRSS2 Assays for Screening Drug Repurposing Candidates as Potential Treatments of COVID-19” (bioRxiv, 2022)
Entries after “also recorded” stand apart in the source; their conditions may differ. Counter-ions that a name gives are not always drawn. Like-named read-outs stand apart in the source and are kept apart here.

Key:
[1] = Fluorescence counterassay (AMC quenching); conditions: 1 μM AMC; for Biochemical (fluorogenic counterassay) Max Response: 0% = 1 μM AMC, −100% = 0.1 μM AMC, <0% = quenching
Protocol: Assay buffer (50 mM Tris pH 8, 150 mM NaCl, 0.01% Tween20) was added to the full plate to give a total reaction volume of 5 μL. Detection was done using the PHERAstar with 340 nm excitation and 440 nm emission. Fluorescence was normalized relative to a negative control containing 7-amino-4-methylcoumarin at 0.1 μM (−100% activity, low fluorescence) and a positive control containing 7-amino-4-methylcoumarin at 1 μM (0% activity, high fluorescence).

[2] = target: T1, Recombinant Human TMPRSS2 (Homo sapiens, UniProt O15393); test: biochemical; assay type: biochemical; conditions: for AC50: 10 μM Boc-QAR-AMC, 0.175 μM TMPRSS2, 1 h RT, 11-point dose-response in triplicate, read-out: Biochemical (fluorogenic) AC50
T1 sequence (O15393 106-492): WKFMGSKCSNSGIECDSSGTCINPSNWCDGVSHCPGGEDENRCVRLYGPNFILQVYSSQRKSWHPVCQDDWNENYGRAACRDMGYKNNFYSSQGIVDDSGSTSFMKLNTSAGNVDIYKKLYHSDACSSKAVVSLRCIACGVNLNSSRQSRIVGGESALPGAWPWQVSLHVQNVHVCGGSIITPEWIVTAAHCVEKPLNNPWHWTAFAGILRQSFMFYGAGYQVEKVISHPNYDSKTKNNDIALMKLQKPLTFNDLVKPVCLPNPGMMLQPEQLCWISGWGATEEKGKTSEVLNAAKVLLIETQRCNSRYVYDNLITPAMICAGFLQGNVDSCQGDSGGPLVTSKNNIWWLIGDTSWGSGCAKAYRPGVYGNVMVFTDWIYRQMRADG
Protocol: Buffer conditions were tested and optimized to include: 50 mM Tris pH 8, 150 mM NaCl and 0.01% Tween20.
Following 1 h of incubation at RT, detection was done using the PHERAstar with 340 nm excitation and 440 nm emission (Table 1).
To determine compound activity in the assay, the concentration–response data for each sample was plotted and modeled by a four-parameter logistic fit yielding IC50 and maximal response values. […] Data normalization, visualization, and curve fitting were performed using Prism (GraphPad, San Diego, CA).

[3] = target: T1, Recombinant Human TMPRSS2; test: biochemical; assay type: biochemical; conditions: for AC50: 10 μM peptide, 0.4 μM TMPRSS2, 1 h RT, N/D = Not Detected, read-out: Biochemical (mass spectrometry) AC50; for IC50: biochemical assay not given, matches mass spectrometry values, read-out: IC50 inhibition of TMPRSS2
Calu-3 cells [4] = conditions: for AC50: read-out: Calu-3 (cytotoxicity) AC50, N/D = Not Detected
in vitro = conditions: human
Calu-3 cells [5] = conditions: cited from earlier work
recombinant TMPRSS2 = conditions: fluorogenic peptide substrate; cited from earlier work
[6] = tested on: H1N1 and H3N2 influenza virus strains; conditions: Calu-3 cells; cited from earlier work

| Molecule | Biochemical (fluorogenic counterassay) Max Response [1] | AC50 [2] | AC50 [3] | Calu-3 (cytotoxicity) Max Response (Calu-3 cells [4]; ATP content, no PP) | further results |
| --- | --- | --- | --- | --- | --- |
| CC(=O)N[C@@H](CC(C)C)C(=O)N[C@@H](CC(C)C)C(=O)N[C@H](C=O)CCCNC(=N)N [Leupeptin] | 0.5% | 1.58 µM | 0.72 µM | 0% | – |
| CCOC(=O)c1cc(=O)c2c(OCC(COc3cccc4oc(C(=O)OCC)cc(=O)c34)OC(=O)[C@@H](N)CCCCN)cccc2o1 [Cromoglicate lisetil] | -1.4% | 16.5 µM | 25.1 µM | 0% | – |
| N=C(N)c1ccc(OCCCCCOc2ccc(C(=N)N)cc2)cc1 [Pentamidine isethionate] | -0.05% | 9.49 µM | 7.6 µM | – | AC50 (in vitro): 18.6 µM |
| O=S(=O)(F)Cc1ccccc1 [Phenylmethanesulfonyl fluoride (PMSF), Phenylmethanesulfonyl fluoride] | -2.8% | – | – | 0% | – |
| G-007-LK | 424% | 14.7 µM | – | 0% | – |
| Dibromopropamidine Dihydrochloride | 87% | 4.4 µM | 4.34 µM | -85% | AC50 (Calu-3 cells [4]; ATP content, no PP): 25.1 µM |
| AGN194310 | -9.2% | 7.9 µM | – | 0% | – |
| O=c1ccn([C@H]2C[C@H](O)[C@@H](CO)O2)c(=O)[nH]1 [Deoxyuridine] | 19.3% | 16 µM | – | 0% | – |
| N=C(N)c1cccc(CC(NS(=O)(=O)c2cccc(-c3ccc(Cl)cc3Cl)c2)C(=O)N2CCC(NC(=O)NC3CCCCC3)CC2)c1 (stereo not shown) [Cmpd 114 (Meyer)] | -6.2% | 0.57 µM | 0.26 µM | 0% | cytotoxicity within Calu-3 cells (Calu-3 cells [5]): not cytotoxic; IC50 [3]: ~0.3 µM; Ki (recombinant TMPRSS2): 0.005 µM |
| N=C(N)c1cccc(CC(NS(=O)(=O)c2cccc(-c3ccc(Cl)cc3Cl)c2)C(=O)N2CCC(CCN)CC2)c1 (stereo not shown) [Cmpd 92 (Meyer)] | -5.6% | 0.41 µM | 0.28 µM | 0% | cytotoxicity within Calu-3 cells (Calu-3 cells [5]): not cytotoxic; IC50 [3]: ~0.3 µM; replication of H1N1 and H3N2 influenza virus strains [6]: significantly reduced; Ki (recombinant TMPRSS2): 0.0009 µM |
| O=c1ccc2ccc(O)cc2o1 [7-Hydroxycoumarin] | 1373% | 8.62 µM | – | 0% | inhibition of TMPRSS2 in the fluorogenic assay ([2]; at 40 μM): nearly full inhibition; inhibition of TMPRSS2 in the mass spectrometry detection assay ([3]; dose-response): no inhibition detected; also recorded: did not show inhibition |
| NCCc1ccc(S(=O)(=O)F)cc1 [4-(2-aminoethyl)benzenesulfonyl fluoride] | 23% | – | – | 0% | – |
| CN(C)C(=O)COC(=O)Cc1ccc(OC(=O)c2ccc(NC(=N)N)cc2)cc1 [Camostat] | -5% | – | – | 0% | – |
| CN(C(=O)C(Cl)Cl)c1ccc(OC(=O)c2ccco2)cc1 [Diloxanide furoate] | -3.2% | 11.1 µM | 21.7 µM | 0% | – |
| COC[C@H]1C[C@@H](c2ncc(-c3ccc4c(c3)COc3cc5c(ccc6nc([C@@H]7CC[C@H](C)N7C(=O)[C@@H](NC(=O)OC)C(C)C)[nH]c65)cc3-4)[nH]2)N(C(=O)[C@H](NC(=O)OC)c2ccccc2)C1 [Velpatasvir] | 442% | 14.7 µM | 13.2 µM | 0% | – |
| CCOC(=O)c1ccc(OC(=O)CCCCCNC(=N)N)cc1 [Gabexate mesilate] | 17.4% | – | – | 0% | – |
| N=C(N)NC(=O)c1nc(Cl)c(N)nc1N [Amiloride HCl] | 26.6% | 8.29 µM | 9 µM | 0% | – |
| CC(C)C[C@H](NC(=O)[C@H](Cc1ccccc1)NC(=O)c1cnccn1)B(O)O [Bortezomib] | 4.6% | 11.4 µM | 9.77 µM | -97% | AC50 (in vitro): 0.29 µM; cytotoxicity towards Calu-3 cells (Calu-3 cells [4]; cytotoxicity counter-assay): high cytotoxicity |
| N=C(N)c1ccc2nc(-c3cc(CC(=O)N[C@@H](CC(=O)O)C(=O)O)cc(-c4cc(S(N)(=O)=O)ccc4O)c3O)[nH]c2c1 [PCI-27483] | 61.3% | 1.8 µM | 1.4 µM | 0% | – |
| tannic acid | – | – | – | – | quenching of the AMC fluorescent signal [1]: ~ 30% |
| N=C(N)c1ccc2cc(OC(=O)c3ccc(N=C(N)N)cc3)ccc2c1 [Nafamostat mesilate] | -1.9% | – | – | 0% | – |
| Hydroxystilbamidine bis(methanesulfonate) | -6.4% | 3.03 µM | 2.31 µM | – | Calu-3 (cytotoxicity) Max Response (Calu-3 cells [4]): 0% |
| NC[C@H]1CC[C@H](C(=O)Oc2ccc(CCC(=O)O)cc2)CC1 [Cetraxate HCl] | 2.7% | 2.34 µM | 5.52 µM | 0% | – |
| Nc1nc2ncc(CNc3ccc(C(=O)N[C@@H](CCC(=O)O)C(=O)O)cc3)nc2c(=O)[nH]1 [Folic Acid] | 14.5% | 13.3 µM | – | 0% | – |
| COC(=O)N[C@H](C(=O)N1CCC[C@H]1c1nc(-c2ccc(-c3ccc(-c4c[nH]c([C@@H]5CCCN5C(=O)[C@@H](NC(=O)OC)C(C)C)n4)cc3)cc2)c[nH]1)C(C)C [Daclatasvir dihydrochloride] | 447% | 13.3 µM | – | 0% | – |
| COC(=O)[C@H](Cc1cccc(C(=N)N)c1)[C@@H](C)NC(=O)c1ccc(-c2cc[n+]([O-])cc2)cc1 [Otamixaban] | -1% | – | – | 0% | – |
| Marizomib / Salinosporamide A | 2.2% | 14.7 µM | 22.9 µM | -98% | AC50 (Calu-3 cells [4]; ATP content, no PP): 0.1 µM |
